From ChEMBL document CHEMBL3886637, “Pyridine-2-amides useful as CB2 agonists” (2016)

What was measured:
[1] = molecular target: Cannabinoid receptor 1 (Homo sapiens, UniProt P21554); assay: (§1) cAMP Assay: CHO cells expressing human CB1 or CB2 receptors are seeded 17-24 hours prior to the experiment 50.000 cells per well in a black 96 well plate with flat clear bottom (Corning Costar #3904) in DMEM (Invitrogen No. 31331), 1×HT supplement, with 10% fetal calf serum and incubated at 5% CO2 and 37 °C. in a humidified incubator. The growth medium was exchanged with Krebs Ringer Bicarbonate buffer with 1 mM IBMX and incubated at 30 °C. for 30 min. Compounds were added to a final assay volume of 100 μl and incubated for 30 min at 30 °C. Using the cAMP-Nano-TRF detection kit the assay (Roche Diagnostics) was stopped by the addition of 50 μl lysis reagent (Tris, NaCl, 1.5% Triton X100, 2.5% NP40, 10% NaN3) and 50 μl detection solutions (20 μM mAb Alexa700-cAMP 1:1, and 48 μM Ruthenium-2-AHA-cAMP) and shaken for 2 h at room temperature. The time-resolved energy transfer is measured by a TRF reader (Evotec Technologies GmbH), equipped with a ND:YAG laser as excitation source. The plate is measured twice with the excitation at 355 nm and at the emission with a delay of 100 ns and a gate of 100 ns, total exposure time 10 s at 730 (bandwidth 30 nm) or 645 nm (bandwidth 75 nm), respectively. The FRET signal is calculated as follows: FRET=T730-Alexa730-P(T645-B645) with P=Ru730-B730/Ru645-B645, where T730 is the test well measured at 730 nM, T645 is the test well measured at 645 nm, B730 and B645 are the buffer controls at 730 nm and 645 nm, respectively. cAMP content is determined from the function of a standard curve spanning from 10 μM to 0.13 nM cAMP.; type: functional, cell-based
[2] = molecular target: Cannabinoid receptor 2 (Homo sapiens, UniProt P34972); assay: as §1; type: functional, cell-based
Cannabinoid receptor 2, sequence (P34972 whole entry): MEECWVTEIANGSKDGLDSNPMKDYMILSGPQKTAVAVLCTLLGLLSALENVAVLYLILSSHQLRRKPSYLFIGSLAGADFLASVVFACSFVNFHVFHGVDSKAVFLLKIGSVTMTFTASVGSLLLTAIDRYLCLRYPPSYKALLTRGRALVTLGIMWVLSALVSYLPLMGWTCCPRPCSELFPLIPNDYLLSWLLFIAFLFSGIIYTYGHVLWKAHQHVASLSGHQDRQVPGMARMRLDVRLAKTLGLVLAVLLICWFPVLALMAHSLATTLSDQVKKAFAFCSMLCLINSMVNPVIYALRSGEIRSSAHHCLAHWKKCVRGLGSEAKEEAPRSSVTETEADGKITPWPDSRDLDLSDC

Cannabinoid receptor 1, sequence (P21554 whole entry): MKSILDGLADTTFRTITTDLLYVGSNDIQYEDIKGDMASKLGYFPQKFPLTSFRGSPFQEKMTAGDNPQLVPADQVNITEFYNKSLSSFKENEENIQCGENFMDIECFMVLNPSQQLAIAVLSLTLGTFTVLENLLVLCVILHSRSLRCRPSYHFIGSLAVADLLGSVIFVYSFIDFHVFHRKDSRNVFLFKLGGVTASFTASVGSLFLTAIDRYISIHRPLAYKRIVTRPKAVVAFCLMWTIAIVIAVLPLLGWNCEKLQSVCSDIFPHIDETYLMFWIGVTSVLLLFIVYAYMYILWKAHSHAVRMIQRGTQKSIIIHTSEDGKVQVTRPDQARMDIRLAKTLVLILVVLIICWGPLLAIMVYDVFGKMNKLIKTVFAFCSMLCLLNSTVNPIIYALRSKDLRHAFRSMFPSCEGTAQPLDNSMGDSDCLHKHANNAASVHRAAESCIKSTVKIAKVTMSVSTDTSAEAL

Q: Which results are given for `CC(C)N(C(=O)c1ccc(N2CC(F)(F)C2)c(OCC2CC2)n1)C(C)C`?
A: EC50 [1]: > 10 µM; EC50 [2]: 0.0126 µM

Q: With `CC1(C)CC(C(N)=O)N(C(=O)c2ccc(N3CC(F)(F)C3)c(OCC3CC3)n2)C1` (stereo not drawn) as the molecule, how does the EC50 [2] read?
A: 0.0066 µM
